In patent US11505548B2, “Heterocyclic compounds and their use for treatment of helminthic infections and diseases” (Celgene Corporation, priority 2019, dated 2022):

Test system: Onchocerca gutturosa Adult Male Worms
Test: Onchocerciasis in vitro screening model, worm motility score
Format: cell-based
Conditions: in vitro; Onchocerca gutturosa adult male worms; class A/B/C; read-out: O. gutturosa activity level (IC50 or MED)

## CC(=O)N(C)c1cccnc1Nc1nc(-c2cc3c(cn2)N(C(C)C)CC3)ns1 [Compound 206, N-(2-(3-(1-isopropyl-2,3-dihydro-1H-pyrrolo[2,3-c]pyridin-5-yl)-1,2,4-thiadiazol-5-ylamino)pyridin-3-yl)-N-methylacetamide]
  IC50: 0.5 to 5 µM

## CC(=O)N(C)c1cccnc1Nc1nc(-c2ccc(NC34CC(C3)C4)cn2)ns1 [Compound 207, N-(2-(3-(5-(bicyclo [1.1.1]pentan-1-ylamino)pyridin-2-yl)-1,2,4-thiadiazol-5-ylamino)pyridin-3-yl)-N-methylacetamide]
  IC50: 0.5 to 5 µM

## CC(=O)N(C)c1cccnc1Nc1nc(-c2cc(C)ccn2)ns1 [Compound 208, N-methyl-N-(2-(3-(4-methylpyridin-2-yl)-1,2,4-thiadiazol-5-ylamino)pyridin-3-yl)acetamide]
  IC50: 0.5 to 5 µM

## COc1ccc(-c2nsc(Nc3ccc(C(F)(F)F)cn3)n2)nc1 [Compound 209, 3-(5-methoxy-pyridin-2-yl)-N-(5-(trifluoromethyl)pyridin-2-yl)-1,2,4-thiadiazol-5-amine]
  IC50: < 0.2 µM

## COc1cccnc1-c1nsc(Nc2cc(C(F)(F)F)c(C(C)C)cn2)n1 [Compound 210, N-(5-isopropyl-4-(trifluoromethyl)pyridin-2-yl)-3-(3-methoxy-pyridin-2-yl)-1,2,4-thiadiazol-5-amine]
  IC50: 0.2 to 0.5 µM

## Cc1cccnc1Nc1nnc(-c2cc(OC(C)C)ccn2)o1 [Compound 211, 5-(4-isopropoxy-pyridin-2-yl)-N-(3-methyl-pyridin-2-yl)-1,3,4-oxadiazol-2-amine]
  IC50: 0.5 to 5 µM

## COc1ccc(Nc2nnc(-c3cc(OC(C)C)ccn3)o2)nc1 [Compound 212, 5-(4-isoprop-oxypyridin-2-yl)-N-(5-methoxy-pyridin-2-yl)-1,3,4-oxadiazol-2-amine]
  IC50: 0.5 to 5 µM

## FC(F)(F)c1ccc(Nc2nc(-c3cc(OC4CCCCC4)ccn3)ns2)nc1 [Compound 213, 3-(4-(cyclo-hexyloxy)pyridin-2-yl)-N-(5-(trifluoromethyl)pyridin-2-yl)-1,2,4-thiadiazol-5-amine]
  IC50: < 0.2 µM

## COc1ccc(Nc2nnc(-c3cc(OC4CCCCC4)ccn3)o2)nc1 [Compound 214, 5-(4-(cyclohexy-loxy)pyridin-2-yl)-N-(5-methoxypyridin-2-yl)-1,3,4-oxadiazol-2-amine]
  IC50: < 0.2 µM

## COc1ccc(-c2nsc(Nc3ccc(OC(C)C)cn3)n2)nc1 [Compound 215, N-(5-isoprop-oxypyridin-2-yl)-3-(5-methoxy-pyridin-2-yl)-1,2,4-thiadiazol-5-amine]
  IC50: 0.5 to 5 µM

## CC(=O)N(C)c1cccnc1Nc1nc(-c2cc(C(C)C)ccn2)ns1 [Compound 216, N-(2-(3-(4-iso-propylpyridin-2-yl)-1,2,4-thiadiazol-5-ylamino)pyridin-3-yl)-N-methyl-acetamide]
  IC50: 0.2 to 0.5 µM

## CC(C)c1ccnc(-c2nsc(Nc3ncccc3N(C)C(=O)C3CC3)n2)c1 [Compound 217, N-(2-(3-(4-isopropylpyridin-2-yl)-1,2,4-thiadiazol-5-ylamino)pyridin-3-yl)-N-methylcyclo-propanecarbox-amide]
  IC50: 0.2 to 0.5 µM

## CC(C)Oc1cnc(-c2nsc(Nc3ncccc3C(F)(F)F)n2)cc1C(=O)N(C)C [Compound 218, 5-isopropoxy-N,N-dimethyl-2-(5-(3-(trifluoromethyl)pyridin-2-ylamino)-1,2,4-thiadiazol-3-yl)isonico-tinamide]
  IC50: 0.5 to 5 µM

## CC(C)Oc1cnc(-c2nsc(Nc3ncc(C(C)C)cc3C(F)(F)F)n2)cc1C(=O)N(C)C [Compound 219, 5-isopropoxy-2-(5-(5-isopropyl-3-(trifluoromethyl)pyridin-2-ylamino)-1,2,4-thiadiazol-3-yl)-N,N-dimethyliso-nicotinamide]
  IC50: 0.2 to 0.5 µM

## CC(C)Oc1cnc(-c2nsc(Nc3ncccc3C(F)(F)F)n2)cc1C(N)=O [Compound 220, 5-isopropoxy-2-(5-(3-(trifluoromethyl)pyridin-2-ylamino)-1,2,4-thiadiazol-3-yl)isonico-tinamide]
  IC50: 0.2 to 0.5 µM

## CC(C)Oc1cnc(-c2nsc(Nc3ncc(C(C)C)cc3C(F)(F)F)n2)cc1C(N)=O [Compound 221, 5-isopropoxy-2-(5-(5-isopropyl-3-(trifluoromethyl)pyridin-2-ylamino)-1,2,4-thiadiazol-3-yl)iso-nicotinamide]
  IC50: 0.2 to 0.5 µM

## CC(=O)N(C)c1cccnc1Nc1nc(-c2ccc(OC(C)C)cn2)no1 [Compound 222, N-(2-(3-(5-isopropoxy-pyridin-2-yl)-1,2,4-oxadiazol-5-ylamino)pyridin-3-yl)-N-methyl-acetamide]
  IC50: 0.5 to 5 µM

## CC(=O)N(C)c1cccnc1Nc1nc(-c2cc(C(C)C)c(C)cn2)ns1 [Compound 223, N-(2-(3-(4-isopropyl-5-methylpyridin-2-yl)-1,2,4-thiadiazol-5-ylamino)pyridin-3-yl)-N-methyl-acetamide]
  IC50: 0.2 to 0.5 µM

## CC(C)Oc1cnc(-c2nsc(Nc3ncccc3C(=O)N(C)C)n2)cc1C(F)(F)F [Compound 225, 2-(3-(5-isopropoxy-4-(trifluoromethyl)pyridin-2-yl)-1,2,4-thiadiazol-5-ylamino)-N,N-dimethyl-nicotinamide]
  IC50: 0.5 to 5 µM

## CC(=O)N(C)c1cccnc1Nc1nc(-c2cc(C#N)c(OC(C)C)cn2)ns1 [Compound 226, N-(2-(3-(4-cyano-5-isopropoxy-pyridin-2-yl)-1,2,4-thiadiazol-5-ylamino)pyridin-3-yl)-N-methyl-acetamide]
  IC50: 0.5 to 5 µM

## CN(C)C(=O)c1cccnc1Nc1nc(-c2cc3c(cn2)N(C)CC3)ns1 [Compound 229, N,N-dimethyl-2-(3-(1-methyl-2,3-dihydro-1H-pyrrolo[2,3-c]pyridin-5-yl)-1,2,4-thiadiazol-5-ylamino) nicotinamide]
  IC50: 0.5 to 5 µM

## Cc1cccnc1Nc1nc(-c2cc(C(C)C)c(C(=O)N(C)C)cn2)ns1 [Compound 230, 4-isopropyl-N,N-dimethyl-6-(5-(3-methyl-pyridin-2-ylamino)-1,2,4-thiadiazol-3-yl)nicotinamide]
  IC50: 0.5 to 5 µM

## Cc1cc(C#N)cnc1Nc1nc(-c2ccc(OC(C)C)cn2)ns1 [Compound 231, 6-(3-(5-isoprop-oxypyridin-2-yl)-1,2,4-thiadiazol-5-ylamino)-5-methyl-nicotinonitrile]
  IC50: 0.2 to 0.5 µM

## CC(C)Oc1ccnc(-c2nnc(Nc3ccc(C(C)C)cn3)s2)c1 [Compound 232, 5-(4-isopropoxy-pyridin-2-yl)-N-(5-isopropyl-pyridin-2-yl)-1,3,4-thiadiazol-2-amine]
  IC50: 0.5 to 5 µM

## COc1ccc(Nc2nnc(-c3cc(OC4CCCCC4)ccn3)s2)nc1 [Compound 233, 5-(4-(cyclo-hexyloxy)pyridin-2-y1)-N-(5-methoxypyridin-2-yl)-1,3,4-thiadiazol-2-amine]
  IC50: < 0.2 µM

## c1ccc(-c2ccnc(Nc3nnc(-c4ccccn4)o3)c2)cc1 [Compound 235, N-(4-phenyl-pyridin-2-yl)-5-(pyridin-2-yl)-1,3,4-oxadiazol-2-amine]
  IC50: 0.5 to 5 µM

## Cc1ccnc(Nc2nnc(-c3ncccc3C)o2)c1 [Compound 236, 5-(3-methyl-pyridin-2-yl)-N-(4-methy-lpyridin-2-yl)-1,3,4-oxadiazol-2-amine]
  IC50: 0.5 to 5 µM

## c1ccc(-c2ccnc(Nc3nc(-c4ccccn4)ns3)c2)cc1 [Compound 237, N-(4-phenyl-pyridin-2-yl)-3-(pyridin-2-yl)-1,2,4-thiadiazol-5-amine]
  IC50: 0.5 to 5 µM
